Experimental data: patent publication US5932568A, “6-methoxy-1H-benzotriazole-5-carboxamide derivatives and pharmaceutical compositions containing them” (priority 1994, dated 1999)
Where a name gives a salt, the structure may show the parent alone.

Experiments:
dopamine D2 receptor = conditions: cited from earlier work
[1] = system: gastric emptying delayed by cholecystokinin; assay: Effect on gastric emptying delayed by cholecystokinin; format: in vivo, Male Wistar rats; set-up: key to Effect on gastric emptying delayed by cholecystokinin: +: slightly to moderately improved; ++: markedly improved; ±: no improvement; conditions: for Effect on gastric emptying delayed by cholecystokinin: cholecystokinin 3 μg/kg s.c.
Method: (§1) The test was carried out according to the method of Scarpignato et al. [c f. Arch. int. Pharmacodyn., 246, 286-294 (1980)]. Male Wistar rats, weighing 130-150 g, were fasted for 18 hours before experimentation, and 1.5 ml of a test meal (phenol red 0.05% in a 1.5% aqueous methylcellulose solution) was orally given. Fifteen minutes after administration of the meal the stomach was removed and the amount of phenol red remaining in the stomach was measured. The test compounds, 10, 30 or 100 mg/kg, each dissolved or suspended in a 0.5% tragacanth solution, were orally administrated 60 minutes before administration of the test meal. Gastric emptying was delayed by subcutaneous administration of cholesystokinin 3 μg/kg or morphine 3 mg/kg 5 minutes before the administration of phenol red. The number of animals used was 5 to 10.

[2] = system: apomorphine-induced vomiting; assay: Inhibitory effect on apomorphine-induced vomiting; format: in vivo, dogs (Beagle); conditions: 2 h before s.c. apomorphine hydrochloride 0.3 mg/kg, emetic episodes 1 h
Method: A group of 3-4 dogs (Beagle, 8-15 kg) was used for examining inhibitory effects of the test compounds on apomorphine-induced vomiting according to the method of Chen and Ensor [cf. J. Pharmacol. Exp. Ther., 98, 245-250 (1950)]. Test compounds, dissolved or suspended in a 0.5% tragacanth solution were orally administered two hours before the subcutaneous administration of apomorphine hydrochloride (0.3 mg/kg). Then, the emetic episodes were counted for one hour. The emetic episodes of the compound-treated group were compared with those of the corresponding control (non-dosed) group, and the percent inhibition was calculated.

[3] = system: gastric emptying delayed by morphine; assay: Effect on gastric emptying delayed by morphine; format: in vivo, Male Wistar rats; set-up: key to Effect on gastric emptying delayed by morphine: +: slightly to moderately improved; ++: markedly improved; ±: no improvement; conditions: for Effect on gastric emptying delayed by morphine: morphine 3 mg/kg s.c.
Method: as §1

[4] = system: gastrointestinal motility; assay: Gastrointestinal motility improving activity (overall statement); conditions: in vivo
exploratory activity = assay: Inhibitory effect on exploratory activity; format: in vivo, male mice (Std-ddy strain); conditions: oral, 2 h before test; 3 min counting; Probit
Excerpt: A group of 5 male mice (Std-ddy strain, 20-25 g) was used. Two hours after oral administration of the test compounds in the form of 0.5% tragacanth solution or suspension, mice were placed individually in a test box (23×35×30 cm) on Animex activity meter (Farad Co.). Immediately thereafter, activity counting was started and lasted for three minutes. The mean counts of the compound-treated group were compared with those of the corresponding control (non-dosed) group, and the percent inhibition was calculated and the 50% inhibitory dose (ID50) was obtained according to the method of Probit.

gastric emptying = assay: Gastric emptying enhancing activity; format: in vivo, Male Wistar rats; conditions: 3 mg/kg oral, 60 min before test meal; increase from control
Method: The test was carried out according to the method of Scarpignato et al. [cf. Arch. Int. Pharmacodyn., 246, 286-294 (1980)]. Male Wistar rats, weighing 130-150 g, were fasted for 18 hours before experimentation, and 1.5 ml of a test meal (phenol red 0.05% in a 1.5% aqueous methylcellulose solution) was orally given. Fifteen minutes after administration of the meal the stomach was removed and the amount of phenol red remaining in the stomach was measured. The test compounds, dissolved or suspended in a 0.5% tragacanth solution, were orally administered 60 minutes before administration of the test meal. The rate of gastric emptying was calculated according to the amount of phenol red remaining in the stomach, and the activity of the test compounds was expressed in terms of increase in the emptying rate from the control.

in vivo = conditions: mouse, oral, mice, 7 days observation
[5] = system: gastrointestinal motility; assay: Effect on gastrointestinal motility in conscious dog; format: in vivo, beagle dogs; conditions: 3 and 10 mg/kg intragastric; fed state, conscious dogs
Method: Four healthy beagle dogs per group of both sexes weighing 10 to 12 kg were anesthetized with an i.v. injection of pentobarbital sodium (Nembutal, 30 mg/kg b. wt.), and the abdominal cavity was opened under aseptic conditions. Extraluminal force transducers were sutured onto the seromuscular layer of the gastric antrum, 3 cm proximal to the pyloric ring, the duodenum, the jejunum, the […] terminal ileum in a manner to measure circular muscle contraction, following the method of Ito et al., [cf. Gastrointerol. Japan. 12, 275-283 (1977).] For intragastric (i.g.) administration of drugs, a Silastic tube (Fr. size 6.5) was inserted into the lumen of the gastric body, and the tube was fixed onto the adjacent serosa. The lead wires of these transducers and gastric tube were taken out of abdominal cavity and then brought out through a skin incision made between the scapulae. The outer ends of the lead wires were sutured onto the skin adjacent to the skin incision. After the operation, jacket protector was placed on the dog to protect the lead wires and the Silastic tube. The dogs were housed in individual experimental cages and given dog food at 10 a.m., and water was given freely. Test compounds at 3 and 10 mg/kg were suspended in 0.5% tragacanth solution and given i.g. through the indwelling Silastic tube.

SMILES | Dopamine D2 receptor antagonistic activity (dopamine D2 receptor) | CNS depressant activity (dopamine D2 receptor; derived from dopamine D2 receptor antagonistic activity) | Effect on gastric emptying delayed by cholecystokinin ([1]; 10 mg/kg oral) | Effect on gastric emptying delayed by cholecystokinin ([1]; 30 mg/kg oral) | Effect on gastric emptying delayed by cholecystokinin ([1]; 100 mg/kg oral) | Gastric emptying delayed by cholecystokinin (in words) ([1]; compound 2: 30 or 100 mg/kg, 7b and Compound A: 10, 30 or 100 mg/kg) | Inhibition of apomorphine-induced vomiting ([2]; 0.1 mg/kg oral) | Inhibition of apomorphine-induced vomiting ([2]; 1.0 mg/kg oral) | Effect on gastric emptying delayed by morphine ([3]; 10 mg/kg oral) | Effect on gastric emptying delayed by morphine ([3]; 30 mg/kg oral) | Effect on gastric emptying delayed by morphine ([3]; 100 mg/kg oral) | Gastric emptying delayed by morphine (in words) ([3]; 10, 30 or 100 mg/kg) | Gastrointestinal motility improving activity (in words) [4] | ID50 (inhibition of exploratory activity) (exploratory activity) | Increase in gastric emptying rate (gastric emptying) | LD50 at 168 h (in vivo) | Interdigestive migrating like-contractions [5]
CCN(CC)CCNC(=O)c1cc(Cl)c(N)cc1OC [metoclopramide, 4-amino-5-chloro-N-[2-(diethylamino)ethyl]-2-methoxybenzamide] | dopamine D2 receptor antagonistic activity | possesses CNS depressant activity | – | – | – | – | – | – | – | – | – | – | – | – | – | – | –
CCN1CCCC[C@@H](NC(=O)c2cc3nn[nH]c3cc2OC)C1 [Compound 7b, (R)-N-(1-ethyl-1H-hexahydroazepin-3-yl)-6-methoxy-1H-benzotriazole-5-carboxamide.3/2 fumarate] | – | – | + | ++ | ++ | significantly improved gastric emptying delayed by cholecystokinin or morphine | 69% | 100% | + | ++ | ++ | significantly improved gastric emptying delayed by cholecystokinin or morphine | especially excellent gastrointestinal motility improving activity | > 100 mg/kg | 34% | 945 mg/kg | caused interdigestive migrating like-contractions in fed state in conscious dogs
